# From patent publication US8975275B2, “Use of chemotherapeutic agents” (priority 1999, dated 2015)
# Counter-ions that a name gives are not always drawn.
# Columns and labels:
# periodontal diseases = assay: Topical treatment of periodontal diseases (patient cases); type: in vivo, human
# Source text: To do this, threads or so-called chips impregnated with solutions or gelatinous preparations of the compounds of formula (I) or formula (II) are inserted in the gingival pocket. A possible alternative is to use medicament carriers in the form of trays covering the teeth and gingiva. Before they are applied, the gelatinous applications of the compounds of formula (I) or formula (II) are instilled into the gingival pockets. In addition, the gel containing the compounds of formula (I) or formula (II) can also be placed in the medicament carrier. This use of medicament carriers is advantageous because the treatment time can be reduced by the rapid onset of action to about 15 to 30 minutes, so the treatment can be carried out directly in the surgery. The compounds of formula (I) or formula (II) can be used in concentrations of 0.005 mg/ml to 200 mg/ml. Preferred concentrations are those ranging from 0.5 mg/ml to 200 mg/ml and particularly preferred concentrations are those ranging from 10 to 150 mg/ml. Periodontal diseases can also be treated by administering the compounds of formula (I) or formula (II) by intraligamental injection, it being possible to use concentrations ranging from 0.005 mg/ml to 200 mg/ml, preferably from 0.5 mg/ml to 200 mg/ml. For the antibiotics commonly used nowadays, such as tetracyclines, an intraligamental injection is not reasonable since these compounds with a predominantly bacteriostatic action are quickly washed out due to the rapid fluid exchange in the periodontal interstice, and cannot develop their action. Tetra-cyclines can therefore only develop their effects via depot formulations. By contrast, the compounds of formula (I) or formula (II) have a very rapid and also bactericidal action, so their residence time in the periodontal interstice is sufficient to destroy the microbes.
# [1] = test system: wounds, bacterial skin infections, diabetic foot syndrome; assay: Wound care: topical/local application (patient cases); type: in vivo, human; conditions: for wound check-up, ulcer c) / wound check-up, ulcer a) / wound check-up, ulcer b): Patient D 3; for wound check-up: Patient D 4
# Source text: Postoperative wound infections can generally occur in cases of inadequate infection prophylaxis following surgical interventions. Posttraumatic wound infections can arise due to cuts, stings, bruises, bites or gunshot wounds. Local perioperative prophylaxis can be carried out in the case of aseptic operations with a slight risk of infection. It is also possible to use local perioperative prophylaxis in addition to systemic perioperative prophylaxis, for example in the case of infections with an increased risk of infection, such as implantations, heart operations, transplantations, neurosurgical operations, operations in a highly contaminated area such as the oral cavity, oesophagus, rectum or colon, hysterectomy, bile duct operations, operations on patients with lowered resistance, or amputations. The local treatment of first, second or third degree burns can be administered prophylactically or after infection. […] Examples of hand infections are panaritium cutaueum, panaritium subcutaneum, panaritium ossale, panaritium articulate or tendovaginitis purulenta. In postoperative sepsis the infected wounds can be rendered substantially or completely free of microbes by the topical application of antibacterial agents. Gangrenes can be handled by local treatment with antibiotics in addition to therapy with parenteral antibiotics. Examples of acute bacterial skin infections are pyoderma, erysipelas, furuncles, carbuncles, phlegmons, abscesses, ulcus cruris, diabetic foot, infected decubital ulcers, blood blisters, erysipeloids or erytlrasma. Examples of chronic bacterial skin infections are lupus vulgaris, swimming-pool granuloma, Buruli ulcers or actinomycosis. Secondary bacterial infections occur for example in virus infections such as herpes simplex, herpes zoster or chicken-pox. Secondary bacterial infections of dermatoses occur for example in eczema, the exudation stage of neurodermatitis, vesicular dermatoses or contact dermatitis. Milder and moderate forms of acne and rosacea can also be treated locally.
# [2] = gel (1%) weekly, after 2nd week
structure (smiles),measurement,setting,value
"COc1c(N2C[C@@H]3CCCN[C@@H]3C2)c(F)cc2c(=O)c(C(=O)O)cn(C3CC3)c12 [moxifloxacin hydrochloride, 1-cyclopropyl-6-fluoro-1,4-dihydro-8-methoxy-7-[(4aS,7aS)-octahydro-6H-pyrrolo[3,4-b]pyridin-6-yl]-4-oxo-3-quinolinecarboxylic acid]",clinical finding at check-up,"periodontal diseases; Patient B 1, teeth 26 and 27 marginal periodontitis, thread insert gel 50 mgn/ml, check-up after 3 days","patient symptom-free, gingival regions and pockets inflammation-free"
same,clinical finding at check-up,"periodontal diseases; Patient B 2, teeth 14 to 18 severe marginal periodontitis, thread insert gel 50 mg/ml, check-up after 4 days","patient symptom-free, gingival regions and pockets inflammation-free"
same,clinical finding at check-up,"periodontal diseases; Patient B 3, teeth 24 to 28 marginal periodontitis, thread insert 50 mg/ml, check-up after 5 days","patient symptom-free, gingival regions and pockets inflammation-free"
same,clinical finding at check-up,"periodontal diseases; Patient B 4, marginal periodontitis entire upper and lower jaw, medicinal splint gel 0.25 mg/ml 10 minutes/day for 4 days, check-up after 3 days","patient symptom-free, no more inflammatory phenomena present"
same,clinical finding at check-up,"periodontal diseases; Patient B 5, tooth 37 marginal periodontitis, thread insert gel 50 mg/ml, check-up after 8 days","patient symptom-free, gingival regions and pockets inflammation-free"
same,clinical finding at check-up,"periodontal diseases; Patient B 6, teeth 25-28 severe marginal periodontitis, thread insert gel 50 mg/ml + intraligamental injection 50 mg/ml, check-up after 10 days","patient symptom-free, gingival regions and pockets inflammation-free"
same,wound outcome,"[1]; Patient D 1, combustio escharotica on left forearm, gel (1%), after one week",Regeneration of skin epithelium with complete wound closure
same,"wound check-up, ulcer c)","[1]; D IV/D V, gel (1%) weekly, after 2nd week",ulcer C IV/D V healed
same,"wound check-up, ulcer a)","[1]; deep 2×1.5 cm greasy ulcer under right big toe, dressings with gel (1%) at weekly intervals, after 1st week","ulcer D I, 1×0.5 cm, clean"
same,"wound check-up, ulcer a)",[1]; [2],"ulcer D I pinhead-size, clean"
same,"wound check-up, ulcer a)","[1]; gel (1%) weekly, after 3rd week",ulcer D I unchanged
same,"wound check-up, ulcer a)","[1]; gel (1%) weekly, after 4th week",ulcer D I healed
same,"wound check-up, ulcer c)","[1]; large fissure D IV/D V, dressings with gel (1%) at weekly intervals, after 1st week",ulcer D IV/D V encrusted
same,"wound check-up, ulcer b)","[1]; large ulcer D III, dressings with gel (1%) at weekly intervals, after 1st week",ulcer D III clean
same,"wound check-up, ulcer b)","[1]; ulcer D III, gel (1%) weekly, after 2nd week","ulcer D III, clean granular tissue"
same,"wound check-up, ulcer b)","[1]; ulcer D III, gel (1%) weekly, after 3rd week",ulcer D III pinhead-size
same,"wound check-up, ulcer b)","[1]; ulcer D III, gel (1%) weekly, after 4th week",ulcer D III healed
same,wound check-up,"[1]; diabetic foot syndrome, 1×1 cm greasy ulcer, dressings with gel (1%) at weekly intervals, after 1st week","ulcer 0.2×0.4 cm, clean"
same,wound check-up,[1]; [2],ulcer healed
same,wound outcome,"[1]; Patient D 5, diabetic gangrene on left big toe, four applications of gel (1%) at weekly intervals","Regeneration of skin epithelium with complete wound closure, revascularization"
same,clinical outcome,"[1]; Patient D 7, phlegmons on palm of left hand, incision, local antibiosis with gel (1%), repeated after 2 days",Patient symptom-free
same,clinical outcome,"[1]; Patient D 9, carbuncle on back of neck, excision, open wound treatment with impregnated compress",Patient symptom-free
